Among the data in ChEMBL document CHEMBL1140648, “Structure-activity relationships of bioisosteres of a carboxylic acid in a novel class of bacterial translation inhibitors” (2007) are inhibition, MIC and Ratio values, retold here.

Holding throughout (type): functional
In experiment [1] the test system is Staphylococcus aureus. Description: Inhibition of transcription/translation in Staphylococcus aureus at 100 uM.
The subject of experiment [2] is Staphylococcus aureus. Description: Antibacterial activity against Staphylococcus aureus UC9218.
The test system of experiment [3] is Staphylococcus aureus. Briefly: Antibacterial activity against Staphylococcus aureus UC9218 in presence of 5% HSA.
In experiment [4] the test system is Staphylococcus aureus. Description: Antibacterial activity against Staphylococcus aureus UC9218 in presence of 10% HSA.
The test system of experiment [5] is Staphylococcus aureus. Description: Ratio of MIC for Staphylococcus aureus UC9218 in presence of 5% HSA to MIC for Staphylococcus aureus UC9218 in absence of HSA.

≈ marks a conversion by molar mass, not a printed value.

As a reminder, the inhibition is the percentage by which the read-out fell short of the control. For orientation: MIC means the lowest concentration found to suppress growth. The compound `CN(c1ccc(Cl)cc1)S(=O)(=O)c1ccc(C(=O)Nc2ccc(Br)cc2C(=O)O)cc1` came in with an inhibition at 100 µM in the experiment with Staphylococcus aureus [1] of 79%. Moreover, the MIC against Staphylococcus aureus [2] is 8 µg/mL (≈ 15.3 µM); in the experiment on Staphylococcus aureus [3] it was 128 µg/mL; in the experiment on Staphylococcus aureus [4], greater than 128 µg/mL. Moreover, the Ratio in the experiment on Staphylococcus aureus [5] turned out to be 8.

In the experiment on Staphylococcus aureus [1], `CN(c1ccc(Cl)cc1)S(=O)(=O)c1ccc(C(=O)Nc2ccc(Br)cc2-c2noc(=O)[nH]2)cc1` had an inhibition at 100 µM of 98%. In addition, the MIC against Staphylococcus aureus [2] was 8 µg/mL (≈ 14.2 µM); with Staphylococcus aureus [3] it was greater than 128 µg/mL; in the experiment on Staphylococcus aureus [4], greater than 128 µg/mL. The Ratio in the experiment on Staphylococcus aureus [5] is greater than 8.

With `CN(c1ccc(Cl)cc1)S(=O)(=O)c1ccc(C(=O)Nc2ccc(Br)cc2C(O)(C(F)(F)F)C(F)(F)F)cc1`, in the experiment with Staphylococcus aureus [1], at 100 µM the inhibition was 41%. Besides, the MIC was 0.5 µg/mL (≈ 0.774 µM) in the experiment with Staphylococcus aureus [2], 64 µg/mL in the experiment with Staphylococcus aureus [3] and greater than 128 µg/mL in the experiment with Staphylococcus aureus [4]. In the experiment with Staphylococcus aureus [5], the Ratio is reported as 128.

The compound `CN(c1ccc(Cl)cc1)S(=O)(=O)c1ccc(C(=O)Nc2ccc(Br)cc2CO)cc1` returned an inhibition at 100 µM in the experiment with Staphylococcus aureus [1] of 4%. The compound further returned an MIC in the experiment on Staphylococcus aureus [2] greater than 128 µg/mL.

Take `CN(c1ccc(Cl)cc1)S(=O)(=O)c1ccc(C(=O)Nc2ccc(Br)cc2C(N)=O)cc1`: the inhibition at 100 µM in the experiment on Staphylococcus aureus [1] worked out at 13%. Further, the MIC against Staphylococcus aureus [2] is greater than 128 µg/mL.

In the experiment with Staphylococcus aureus [1], `CONC(=O)c1cc(Br)ccc1NC(=O)c1ccc(S(=O)(=O)N(C)c2ccc(Cl)cc2)cc1` had an inhibition at 100 µM of 7%. This compound also showed an MIC against Staphylococcus aureus [2] greater than 128 µg/mL.

`CN(c1ccc(Cl)cc1)S(=O)(=O)c1ccc(C(=O)Nc2ccc(Br)cc2Cc2nnn[nH]2)cc1` yielded an inhibition at 100 µM in the experiment with Staphylococcus aureus [1] of 46%. In the experiment with Staphylococcus aureus [2], this compound yielded an MIC greater than 128 µg/mL.

With `CN(c1ccc(Cl)cc1)S(=O)(=O)c1ccc(C(=O)Nc2ccc(Br)cc2-c2n[nH]c(=O)o2)cc1`, the inhibition at 100 µM in the experiment with Staphylococcus aureus [1] is 60%. In addition, the minimal inhibitory concentration (MIC) in the experiment on Staphylococcus aureus [2] was 2 µg/mL (≈ 3.55 µM); in the experiment on Staphylococcus aureus [4], greater than 128 µg/mL.

Consider `CN(c1ccc(Cl)cc1)S(=O)(=O)c1ccc(C(=O)Nc2ccc(Br)cc2S(N)(=O)=O)cc1`, for which the inhibition at 100 µM in the experiment with Staphylococcus aureus [1] is 0%. In the experiment on Staphylococcus aureus [2], this compound showed an MIC greater than 128 µg/mL.

In turn, `CC(O)c1cc(Br)ccc1NC(=O)c1ccc(S(=O)(=O)N(C)c2ccc(Cl)cc2)cc1` (stereo unspecified) gave an inhibition at 100 µM in the experiment with Staphylococcus aureus [1] of 7%. The compound further gave an MIC against Staphylococcus aureus [2] greater than 128 µg/mL.

In the case of `Cc1cc(Br)ccc1NC(=O)c1ccc(S(=O)(=O)N(C)c2ccc(Cl)cc2)cc1`, the inhibition at 100 µM in the experiment on Staphylococcus aureus [1] was 12%. Also, the MIC with Staphylococcus aureus [2] was greater than 128 µg/mL.

In turn, `CN(c1ccc(Cl)cc1)S(=O)(=O)c1ccc(C(=O)Nc2ccc(Br)cc2-c2nnn[nH]2)cc1` returned an inhibition at 100 µM in the experiment with Staphylococcus aureus [1] of 96%. Moreover, the MIC against Staphylococcus aureus [2] worked out at 16 µg/mL (≈ 29.2 µM).

`CN(c1ccc(Cl)cc1)S(=O)(=O)c1ccc(C(=O)Nc2ccc(Br)cc2NS(C)(=O)=O)cc1` gave an inhibition at 100 µM in the experiment with Staphylococcus aureus [1] of 19%. This compound also registered an MIC with Staphylococcus aureus [2] greater than 128 µg/mL.

`CN(c1ccc(Cl)cc1)S(=O)(=O)c1ccc(C(=O)Nc2ccc(Br)cc2Br)cc1`: the inhibition at 100 µM in the experiment on Staphylococcus aureus [1] was found to be 6%. This compound also yielded an MIC against Staphylococcus aureus [2] greater than 128 µg/mL.

In the experiment on Staphylococcus aureus [1], `CN(c1ccc(Cl)cc1)S(=O)(=O)c1ccc(C(=O)Nc2ccc(Br)cc2NS(=O)(=O)C(F)(F)F)cc1` showed an inhibition at 100 µM of 72%. Besides, in the experiment with Staphylococcus aureus [2], the MIC is 32 µg/mL (≈ 51 µM).

Regarding `CC(=O)c1cc(Br)ccc1NC(=O)c1ccc(S(=O)(=O)N(C)c2ccc(Cl)cc2)cc1`, the inhibition at 100 µM in the experiment with Staphylococcus aureus [1] stood at 0%. Further, in the experiment on Staphylococcus aureus [2], the minimal inhibitory concentration (MIC) is greater than 128 µg/mL.

The compound `CN(c1ccc(Cl)cc1)S(=O)(=O)c1ccc(C(=O)Nc2ccc(Br)cc2)cc1` displayed an inhibition at 100 µM in the experiment on Staphylococcus aureus [1] of 11%. The MIC in the experiment with Staphylococcus aureus [2] was greater than 128 µg/mL.

In the experiment on Staphylococcus aureus [1], `CN(c1ccc(Cl)cc1)S(=O)(=O)c1ccc(C(=O)Nc2ccc(Br)cc2[N+](=O)[O-])cc1` showed an inhibition at 100 µM of 0%. This compound registered an MIC against Staphylococcus aureus [2] greater than 128 µg/mL.

`CN(c1ccc(Cl)cc1)S(=O)(=O)c1ccc(C(=O)Nc2ccc(Br)cc2C#N)cc1` returned an inhibition at 100 µM in the experiment on Staphylococcus aureus [1] of 0%. Besides, the MIC in the experiment on Staphylococcus aureus [2] was greater than 128 µg/mL.

For the compound `CO[C@@H]1[C@@H](OC(N)=O)[C@@H](O)[C@H](Oc2ccc3c(O)c(NC(=O)c4ccc(O)c(CC=C(C)C)c4)c(=O)oc3c2C)OC1(C)C` [NOVOBIOCIN], the MIC in the experiment with Staphylococcus aureus [2] is greater than 0.125 µg/mL; in the experiment on Staphylococcus aureus [3], 0.5 µg/mL; in the experiment on Staphylococcus aureus [4] it was 1 µg/mL.
